Source: patent US9394297B2, “Amides as pim inhibitors” (AMGEN INC., priority 2012, dated 2016)
Like-named read-outs stand apart in the source and are kept apart here.

What was measured:
Pim-1 = Pim-1 (Homo sapiens (Human), UniProt P11309); assay: Pim-Mn enzyme assay (HTRF, 384-well), Pim-1; type: biochemical; details: read-out: Pim-1-Mn IC50 IP
Pim-2 = Pim-2 (Homo sapiens (Human), UniProt Q9P1W9); assay: Pim-Mn enzyme assay (HTRF, 384-well), Pim-2; type: biochemical; details: read-out: Pim-2-Mn IC50 IP
Pim-2, sequence (Q9P1W9 whole entry): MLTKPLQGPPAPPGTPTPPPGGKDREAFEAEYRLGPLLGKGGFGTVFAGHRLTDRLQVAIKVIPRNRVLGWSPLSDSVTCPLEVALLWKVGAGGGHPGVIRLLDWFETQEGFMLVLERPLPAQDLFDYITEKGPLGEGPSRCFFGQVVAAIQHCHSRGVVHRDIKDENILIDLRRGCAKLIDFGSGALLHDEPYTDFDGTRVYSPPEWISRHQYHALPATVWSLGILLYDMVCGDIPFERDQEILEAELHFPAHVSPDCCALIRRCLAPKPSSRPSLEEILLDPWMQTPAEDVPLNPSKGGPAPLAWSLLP

[1] = Pim-1 enzyme 5 pM, ATP 1.5 μM, BAD (S112) 0.5 μM, HTRF, 22-point curve
[2] = Pim-2 enzyme 0.5 pM, ATP 1.5 μM, BAD (S112) 0.5 μM, HTRF, 22-point curve

Pim-1, sequence (P11309 whole entry): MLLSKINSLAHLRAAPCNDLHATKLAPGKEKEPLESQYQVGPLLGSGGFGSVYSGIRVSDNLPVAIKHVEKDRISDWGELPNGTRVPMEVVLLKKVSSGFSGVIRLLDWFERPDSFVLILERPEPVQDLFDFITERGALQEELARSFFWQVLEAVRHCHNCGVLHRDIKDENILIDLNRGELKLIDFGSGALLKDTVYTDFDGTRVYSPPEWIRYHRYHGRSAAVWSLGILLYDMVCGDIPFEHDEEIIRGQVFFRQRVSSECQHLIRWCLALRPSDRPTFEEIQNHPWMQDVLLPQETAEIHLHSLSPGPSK

IC50 (Pim-1; [1])	IC50 (Pim-2; [2])	SMILES	IC50 (Pim-1)	IC50 (Pim-2)
0.718 nM	2.77 nM	C[C@H]1NC(=O)c2cc(-c3cccc4c(=O)n(-c5cccnc5)c(NC(C)(C)C)nc34)[nH]c21 [Example 482, 2-(tert-butylamino)-8-((6R)-6-methyl-4-oxo-1,4,5,6-tetrahydropyrrolo[3,4-b]pyrrol-2-yl)-3-(3-pyridinyl)-4(3H)-quinazolinone]	–	–
0.12 nM	0.11 nM	C[C@H]1NC(=O)c2cc(-c3cccc4c(=O)n(CCCO)c(NC(C)(C)C)nc34)[nH]c21 [Example 500, 2-(tert-butylamino)-3-(3-hydroxypropyl)-8-((6R)-6-methyl-4-oxo-1,4,5,6-tetrahydropyrrolo[3,4-b]pyrrol-2-yl)-4(3H)-quinazolinone]	–	–
0.16 nM	0.19 nM	C[C@H]1NC(=O)c2cc(-c3cccc4c(=O)n(CC(F)(F)F)c(NC(C)(C)C)nc34)[nH]c21 [Example 501, 2-(tert-butylamino)-8-((6R)-6-methyl-4-oxo-1,4,5,6-tetrahydropyrrolo[3,4-b]pyrrol-2-yl)-3-(2,2,2-trifluoroethyl)-4(3H)-quinazolinone]	–	–
–	–	Cc1nc2cccc(-c3cc4c([nH]3)CCNC4=O)c2nc1NS(C)(=O)=O [Example 240, N-(3-methyl-8-(4-oxo-4,5,6,7-tetrahydro-1H-pyrrolo[3,2-c]pyridin-2-yl)quinoxalin-2-yl)methanesulfonamide 2,2,2-trifluoroacetate]	87.5 nM	9.6 nM
3.1 nM	12 nM	CC(C)(C)Nc1nc2c(-c3cc4c([nH]3)CCNC4=O)cccc2nc1-c1ccccc1 [Example 438, 2-(3-(tert-Butylamino)-2-phenylquinoxalin-5-yl)-6,7-dihydro-1H-pyrrolo[3,2-c]pyridin-4(5H)-one]	–	–
1 nM	1.6 nM	C[C@H]1NC(=O)c2cc(-c3cccc4cnc(NC5(C)CC5)nc34)[nH]c21 [Example 499, (6R)-6-methyl-2-(2-((1-methylcyclopropyl)amino)-8-quinazolinyl)-5,6-dihydropyrrolo[3,4-b]pyrrol-4(1H)-one]	–	–
4.1 nM	8.2 nM	Cc1nc2cccc(-c3cc4c([nH]3)CCNC4=O)c2nc1N[C@H]1C[C@H](NC(=O)OC(C)(C)C)C1 [Example 436, tert-butyl ((1r,3s)-3-((3-methyl-8-(4-oxo-4,5,6,7-tetrahydro-1H-pyrrolo[3,2-c]pyridin-2-yl)quinoxalin-2-yl)amino)cyclobutyl)carbamate]	–	–
853 nM	1050 nM	Cc1nc2cccc(-c3cc4c([nH]3)CCNC4=O)c2nc1NC1CN(C)C1 [Example 243, 2-(2-methyl-3-((1-methyl-3-azetidinyl)amino)-5-quinoxalinyl)-1,5,6,7-tetrahydro-4H-pyrrolo[3,2-c]pyridin-4-one]	–	–
24.2 nM	54.3 nM	COC(=O)C(C)(C)Nc1nc2c(-c3cc4c([nH]3)CCNC4=O)cccc2nc1C [Example 57, Methyl 2-methyl-N-(3-methyl-8-(4-oxo-4,5,6,7-tetrahydro-1H-pyrrolo[3,2-c]pyridin-2-yl)-2-quinoxalinyl)alaninate]	–	–
5.85 nM	3.96 nM	Cc1nc2cccc(-c3cc4c([nH]3)C[C@H](C)NC4=O)c2nc1NC(C)(C)C [Example 288, (6S)-2-(3-(tert-butylamino)-2-methyl-5-quinoxalinyl)-6-methyl-1,5,6,7-tetrahydro-4H-pyrrolo[3,2-c]pyridin-4-one]	–	–
2.69 nM	3.37 nM	Cc1nc2cccc(-c3cc4c([nH]3)C[C@@H](C)NC4=O)c2nc1NC(C)(C)C [Example 289, (6R)-2-(3-(tert-butylamino)-2-methyl-5-quinoxalinyl)-6-methyl-1,5,6,7-tetrahydro-4H-pyrrolo[3,2-c]pyridin-4-one]	–	–
3.1 nM	10.5 nM	CC#CCC1CNC(=O)c2cc(-c3cccc4nc(C)c(NC(C)(C)C)nc34)[nH]c21 (racemic) [Example 278, rac-2-(3-(tert-butylamino)-2-methyl-5-quinoxalinyl)-7-(2-butyn-1-yl)-1,5,6,7-tetrahydro-4H-pyrrolo[3,2-c]pyridin-4-one]	–	–
43.7 nM	68.4 nM	CC(=O)N1CCC[C@@H](Nc2nc3c(-c4cc5c([nH]4)CCNC5=O)cccc3nc2C)C1 [Example 241, 2-(3-(((3R)-1-acetyl-3-piperidinyl)amino)-2-methyl-5-quinoxalinyl)-1,5,6,7-tetrahydro-4H-pyrrolo[3,2-c]pyridin-4-one]	–	–
6.1 nM	26.4 nM	Cc1nc2cccc(-c3cc4c([nH]3)CCNC4=O)c2nc1N[C@@H]1CCNC1 [Example 61, 2-(2-methyl-3-((3R)-3-pyrrolidinylamino)-5-quinoxalinyl)-1,5,6,7-tetrahydro-4H-pyrrolo[3,2-c]pyridin-4-one]	–	–
1.3 nM	2.9 nM	Cc1nc2cccc(-c3cc4c([nH]3)CCNC4=O)c2nc1N[C@H]1CC[C@H]1N (racemic) [Example 54, rac-2-(3-((cis-2-aminocyclobutyl)amino)-2-methyl-5-quinoxalinyl)-1,5,6,7-tetrahydro-4H-pyrrolo[3,2-c]pyridin-4-one]	–	–
0.694 nM	0.338 nM	Cc1nc2cccc(-c3cc4c([nH]3)CCNC4=O)c2nc1NC1(C(F)(F)F)CC1 [Example 258, 2-(2-methyl-3-((1-(trifluoromethyl)cyclopropyl)amino)quinoxalin-5-yl)-6,7-dihydro-1H-pyrrolo[3,2-c]pyridin-4(5H)-one]	–	–
0.6 nM	2.4 nM	Cc1nc2cccc(-c3cc4c([nH]3)CCNC4=O)c2nc1NC1CCNCC1 [Example 53, 2-(2-methyl-3-(4-piperidinylamino)-5-quinoxalinyl)-1,5,6,7-tetrahydro-4H-pyrrolo[3,2-c]pyridin-4-one]	–	–
0.046 nM	0.06 nM	C[C@H]1NC(=O)c2cc(-c3c(F)ccc4c(=O)n(C5CC5)c(NC5(C)CC5)nc34)[nH]c21 [Example 495, (R)-3-cyclopropyl-7-fluoro-8-(6-methyl-4-oxo-1,4,5,6-tetrahydropyrrolo[3,4-b]pyrrol-2-yl)-2-((1-methylcyclopropyl)amino)quinazolin-4(3H)-one]	–	–
20 nM	33 nM	Cc1nc2cccc(-c3cc4c([nH]3)CCNC4=O)c2nc1NC1CN(C(=O)OC(C)(C)C)C1 [Example 149, tert-butyl 3-((3-methyl-8-(4-oxo-4,5,6,7-tetrahydro-1H-pyrrolo[3,2-c]pyridin-2-yl)quinoxalin-2-yl)amino)azetidine-1-carboxylate]	–	–
300 nM	191 nM	Cc1nc2cccc(-c3cc4c([nH]3)CCNC4=O)c2nc1NC(C)(C)C(=O)O [Example 60, 2-methyl-N-(3-methyl-8-(4-oxo-4,5,6,7-tetrahydro-1H-pyrrolo[3,2-c]pyridin-2-yl)-2-quinoxalinyl)alanine]	–	–
2.67 nM	2.24 nM	Cc1nc2cccc(-c3cc4c([nH]3)CCNC4=O)c2nc1NC(C)(C)C(F)(F)F [Example 254, 2-(2-methyl-3-((1,1,1-trifluoro-2-methylpropan-2-yl)amino)quinoxalin-5-yl)-6,7-dihydro-1H-pyrrolo[3,2-c]pyridin-4(5H)-one]	–	–
2.5 nM	1.4 nM	Cc1nc2cccc(-c3cc4c([nH]3)CCNC4=O)c2nc1N[C@H]1C[C@@H](O)C1 [Example 439, 2-(3-((cis-3-Hydroxycyclobutyl)amino)-2-methylquinoxalin-5-yl)-6,7-dihydro-1H-pyrrolo[3,2-c]pyridin-4(5H)-one]	–	–
47.2 nM	144 nM	Cc1nc2cccc(-c3cc4c([nH]3)CCNC4=O)c2nc1N[C@H]1CCN(C(=O)OC(C)(C)C)C1 [Example 49, (S)-tert-butyl-3-((3-methyl-8-(4-oxo-4,5,6,7-tetrahydro-1H-pyrrolo[3,2-c]pyridin-2-yl)quinoxalin-2-yl)amino)pyrrolidine-1-carboxylate]	–	–
0.04 nM	0.02 nM	Cn1c(NC(C)(C)C)nc2c(-c3cc4c([nH]3)[C@@H](CCN)NC4=O)cccc2c1=O [Example 504, (R)-8-(6-(2-aminoethyl)-4-oxo-1,4,5,6-tetrahydropyrrolo[3,4-b]pyrrol-2-yl)-2-(tert-butylamino)-3-methylquinazolin-4(3H)-one]	–	–
26.2 nM	116 nM	Cc1nc2cccc(-c3cc4c([nH]3)CCNC4=O)c2nc1N[C@@H]1CCN(C(=O)OC(C)(C)C)C1 [Example 48, tert-butyl (3R)-3-((3-methyl-8-(4-oxo-4,5,6,7-tetrahydro-1H-pyrrolo[3,2-c]pyridin-2-yl)-2-quinoxalinyl)amino)-1-pyrrolidinecarboxylate]	–	–
25.9 nM	34.5 nM	CC(=O)N1CC[C@@H](Nc2nc3c(-c4cc5c([nH]4)CCNC5=O)cccc3nc2C)C1 [Example 64, 2-(3-(((3R)-1-acetyl-3-pyrrolidinyl)amino)-2-methyl-5-quinoxalinyl)-1,5,6,7-tetrahydro-4H-pyrrolo[3,2-c]pyridin-4-one]	–	–
838 nM	706 nM	CC#CCC1CNC(=O)c2cc(-c3cccc4nc(C)c(F)nc34)[nH]c21 (racemic) [Example 280, rac-7-(2-butyn-1-yl)-2-(3-fluoro-2-methyl-5-quinoxalinyl)-1,5,6,7-tetrahydro-4H-pyrrolo[3,2-c]pyridin-4-one]	–	–

SMILES	IC50 (Pim-1; [1])	IC50 (Pim-2; [2])	IC50 (Pim-1)	IC50 (Pim-2)
Cc1nc2cccc(-c3cc4c([nH]3)CCNC4=O)c2nc1OCCC(C)(C)N [Example 269, 2-(3-(3-amino-3-methylbutoxy)-2-methyl-5-quinoxalinyl)-1,5,6,7-tetrahydro-4H-pyrrolo[3,2-c]pyridin-4-one]	44.5 nM	65.3 nM	–	–
Cc1nc2cccc(-c3cc4c([nH]3)CCNC4=O)c2nc1OC1CCC1 [Example 151, 2-(3-cyclobutoxy-2-methylquinoxalin-5-yl)-6,7-dihydro-1H-pyrrolo[3,2-c]pyridin-4(5H)-one]	18.2 nM	12.3 nM	–	–
